Here are results for two compounds from patent publication US20240350511A1, “TREATMENT OF COVID-19” (priority 2021, published 2024).

Series [1] is described as follows: Aggregation study: UV-Vis spectra before and after 0.22 μm filtration. Format: physicochemical. The note with it: DMSO stock diluted with saline, 4 hours at room temperature, 0.22 μm disc filter. Here is the method: The drug concentration was […]. The sample was left for 4 hours at room temperature. UV-visible absorbance spectra of the solution before and after filtration (employing a 0.22 μm disc filter) were measured.
The formulations were placed in an ultrasonic bath at elevated temperature (40° C.) for 6 hours. After cooling to room temperature, UV-Vis spectra were measured for unfiltered solutions as well as for the solutions after filtration using a 0.22 μm disc filter.

The nature of series [2]: Dissolved fraction in gamma-cyclodextrin solution, filtered vs unfiltered absorbance at 300 nm. Format: physicochemical. Particulars: for bazedoxifene acetate dissolved: sonicated at 40° C. for 6 hours. Here is the method:
1.2 mL of a 40 mg/mL solution of GCD in distilled water was added into the microtube. The solution was sonicated at 40° C. for 6 hours. […] The concentration of GCD remained the same in all solutions, specifically 40 mg/mL.
Aliquots of the solutions were filtered through a 0.22 μm disc filter.
1.5 mL of a 40 mg/mL solution of gamma-cyclodextrin in saline was added into the microtube. The solution was sonicated at 40° C. for 6 hours. […] The concentration of gamma-cyclodextrin remained the same in all solutions, specifically 40 mg/mL.
1.2 mL of a 40 mg/mL solution of GCD in phosphate-buffered saline was added into the microtube. The solution was sonicated at 40° C. for 6 hours. […] The concentration of GCD remained the same in all solutions, specifically. 40 mg/ml.
The resulting mixture was ground for 20 minutes at a set grinding speed of 1000 rpm and a grinding temperature of 37° C.
20 mg of the ground mixture was weighed into a microtube and combined with 0.5 mL distilled water. The sample was then sonicated for 5 minutes at 45° C.
An aliquot of the sonicated solution was filtered through a 0.22 μm disc filter.

The conditions of series [3]: healthy volunteers, inhalation of BAZE-X1 1.13 mg.
The conditions of series [4]: rats, bazedoxifene acetate in SBECD.
The next series can be described thus: clinical. Particulars: both, human, in vivo, inhaled or intranasal, 1.13 mg.

Each structure is given as a SMILES string. Where two headings read alike, the source gives them in different places.

The half-life is the time in which the quantity being followed falls by half. Read a high half-life as slow loss.

Regarding `Cc1c(-c2ccc(O)cc2)n(Cc2ccc(OCCN3CCCCCC3)cc2)c2ccc(O)cc12` [bazedoxifene acetate], in series [1], the “absorbance features of the drug after filtration (aggregation)” value is “sharp decrease in absorbance features”. In addition, the figures for the bazedoxifene acetate dissolved in series [2] (40 mg/mL GCD in distilled water), in series [2] (40 mg/mL GCD in phosphate-buffered saline) and in series [2] (40 mg/mL gamma-cyclodextrin in saline) were 97%, 95% and 92%, respectively.
For the compound `Cc1c(-c2ccc(O)cc2)n(Cc2ccc(OCCN3CCCCCC3)cc2)c2ccc(O)cc12` [bazedoxifene], the “plasma levels (pg/mL) and AUC values (h·pg/mL)” value in series [3] was “very low, in majority near the limit of quantitation”. For the same compound, the “time to maximum plasma concentration” value in series [3] (first measurement) is recorded as 10 min. Moreover, the “pathological lesions in the lungs and trachea” value in series [4] (single intranasal 0.5 mg/kg) and in series [4] (single intravenous 0.5 mg/kg) was “did not cause pathological lesions” throughout. Besides, the starting bazedoxifene dissolved in series [2] (mixture ground with GCD (50 mg:250 mg), 20 mg in 0.5 mL distilled water, sonicated 5 minutes at 45° C.) stood at 99%. Besides, in “clinical”, the half-life was 21 h.
